Series [1] is described as follows: Half-life in monkey at 1 mg/kg, po. In kind it is ADME, organism-based, Macaca mulatta. To be noted: rhesus monkey, in vivo.
Series [2] can be described thus: Half-life in rat at 1 mg/kg, po. Type of series: ADME, organism-based. Particulars: in vivo; call rule not given here.
Series [3] can be described thus: Plasma clearance in mouse at 1 mg/kg, iv. Type of series: ADME, organism-based.
The nature of series [4]: AUC (infinity) in rat at 1 mg/kg, po. Further details: dose 1 mg/kg, time infinity, route oral. Type of series: ADME, organism-based. To be noted: in vivo.
The nature of series [5]: AUC (infinity) in mouse at 300 mg/kg, po administered as suspension in 10% captisol. In kind it is ADME, organism-based. Further details: dose 300 mg/kg, route oral, time infinity. To be noted: in vivo.
Series [6] in a line: Half-life in mouse at 100 mg/kg, po administered as suspension in MCT. Type of series: ADME, organism-based. Particulars: in vivo.
The next series has as its system Mus musculus. Description: In vivo inhibition of IRAK4 in CpG ODN 1826 induced C57BL/6 mouse assessed as blockade of TLR9 signalling by measuring TNFalpha levels at 10 mg/kg, po treated 1 hr prior to CpG ODN 1826 stimulation and measured after 1 hr by MSD assay. In kind it is functional. Set-up: scale not given: the % may be the effect or the level left.
Series [7] in a line: Half-life in mouse at 300 mg/kg, po administered as suspension in 10% captisol. Particulars: in vivo. Type of series: ADME, organism-based.
Series [8] is described as follows: Protein binding in monkey plasma at 5 uM incubated for 4 hrs by LC-MS/MS analysis. Type of series: ADME, cell-free, Macaca mulatta. To be noted: rhesus monkey, read-out: PPB (converted).
Series [9] in a line: Drug concentration in CpG ODN 1826 induced C57BL/6 mouse plasma at 1 to 100 mg/kg, po treated 1 hr prior to CpG ODN 1826 stimulation and measured after 1 hr by MSD assay. Type of series: ADME, organism-based. Particulars: in vivo.
Series [10] in a line: Apparent permeability from apical to basolateral side in MDCK cells at 10 uM incubated for 180 mins and measured up to 180 min by LC-MS/MS analysis. Particulars: dog. Type of series: ADME, cell-based, Canis lupus familiaris.
Series [11] in a line: Cmax in mouse at 100 mg/kg, po administered as suspension in 10% captisol. Type of series: ADME, organism-based. Further details: dose 100 mg/kg, route oral. Particulars: in vivo.
A short description of series [12]: Cmax in mouse at 30 mg/kg, po. In kind it is ADME, organism-based. Further details: dose 30 mg/kg, route oral. Particulars: in vivo.

Structures are written as SMILES.

Turning to `C[C@]1(CO)Cc2cc(NC(=O)c3cnn4cccnc34)c(N3CCOCC3)cc2O1`, the half-life in series [1] was 3 h; in [2], 3.8 h; in series [6], 1.6 h; in [7], 42 h. This compound also yielded a clearance in series [3] of 54 mL/min/kg. Also, the AUC(0-inf) in series [4] came to 3 µM·h; in series [5], 340 µM·h. Also, the Activity in the series with Mus musculus is -39%. Further, in series [8], the fraction unbound at 4 h, 5 µM was 0.49. Moreover, the Drug uptake result in [9] is recorded as “Active”. In addition, in series [10], the Papp A→B at 3 h, 10 µM was found to be 15 ×10⁻⁶ cm/s. Further, the results for the maximum concentration (Cmax) in [11] and in [12] were 9.7 µM and 7.2 µM, respectively.
